# In patent EP1561465A2, “Methods of use of fluoroquinolone compounds against bacteria” (LG Life Sciences, Ltd., priority 1999, dated 2001):
# Read-outs that look alike come from different tables or passages of the source.
# Experiments:
# Format in all cases: cell-based
# Enterococcus faecalis = assay: MIC by agar macrodilution (NCCLS), 373 Gram positive isolates, Athens 1998
# Staphylococcus aureus = assay: as above
# Streptococcus pneumoniae [1] = assay: MIC by E-test (broth microdilution for gemifloxacin), 107 pneumococcal carrier isolates, Athens 1998; conditions: for MIC Range: in µg/mL (unit assumed)
# Method: Susceptibility testing was performed by agar dilution or epsilometer method (E-test), as recommended by the NCCLS. […] The susceptibility profiles of the strains were assessed using the Epsilometer method (E-test). The isolates were subdivided into two groups according to their penicillin susceptibility patterns (penicillin-susceptible and penicillin-intermediate.
# Enterococcus faecium = assay: MIC by agar macrodilution (NCCLS), 373 Gram positive isolates, Athens 1998
# Streptococcus pneumoniae [2] = assay: MIC by agar dilution (NCCLS), 411 isolates Buenos Aires 1998-99; conditions: Streptococcus pneumoniae, S. pneumoniae, read-out: MIC90
# [3] = continuation of the preceding table (title not shown), 14 isolates
# [4] = number of isolates at MIC 1 µg/ml, n = 81
# [5] = number of isolates at MIC 4 µg/ml, n = 81
# [6] = Methicillin-susceptible Staphylococcus aureus (n = 85)
# [7] = Penicillin-intermediate S. pneumoniae (n = 24), E-test
# [8] = Penicillin-intermediate S. pneumoniae (n = 24), E-test, unit assumed
# [9] = Penicillin-susceptible S. pneumoniae (n = 107), E-test
# [10] = number of isolates at MIC […], n = 81
# [11] = number of isolates with MIC […] µg/ml, Methicillin-susceptible Staphylococcus aureus (n = 85)
# [12] = number of isolates with MIC […], Methicillin-susceptible Staphylococcus aureus (n = 85)
# [13] = Penicillin-susceptible S. pneumoniae (n = 107), E-test, unit assumed
# [14] = number of isolates at MIC […], n = 14
# [15] = Methicillin-susceptible Staphylococcus aureus (n = 85), read-out: MIC50
# [16] = Methicillin-susceptible Staphylococcus aureus (n = 85), read-out: MIC90
# [17] = Streptococcus pneumoniae, Penicillin-intermediate S. pneumoniae (n = 24), E-test, read-out: MIC50
# [18] = Streptococcus pneumoniae, Penicillin-intermediate S. pneumoniae (n = 24), E-test, read-out: MIC90
# [19] = Streptococcus pneumoniae, Penicillin-susceptible S. pneumoniae (n = 107), E-test, read-out: MIC50
# [20] = Streptococcus pneumoniae, Penicillin-susceptible S. pneumoniae (n = 107), E-test, read-out: MIC90
compound,measurement,setting,value
CN[C@H](CC(C)C)C(=O)N[C@H]1C(=O)N[C@@H](CC(N)=O)C(=O)N[C@H]2C(=O)N[C@H]3C(=O)N[C@H](C(=O)N[C@H](C(=O)O)c4cc(O)cc(O)c4-c4cc3ccc4O)[C@H](O)c3ccc(c(Cl)c3)Oc3cc2cc(c3O[C@@H]2O[C@H](CO)[C@@H](O)[C@H](O)[C@H]2O[C@H]2C[C@](C)(N)[C@H](O)[C@H](C)O2)Oc2ccc(cc2Cl)[C@H]1O [Vancomycin],MIC distribution (µg/ml) 0.03,Enterococcus faecalis,0
same,MIC distribution (µg/ml) 0.06,Enterococcus faecalis,0
same,MIC distribution (µg/ml) 0.125,Enterococcus faecalis,0
same,MIC distribution (µg/ml) 0.25,Enterococcus faecalis,0
same,MIC distribution (µg/ml) 0.5,Enterococcus faecalis,0
same,MIC distribution (µg/ml) 1,Enterococcus faecalis,4
same,MIC distribution (µg/ml) 4,Enterococcus faecalis,6
same,MIC distribution (µg/ml) 8,Enterococcus faecalis,0
same,MIC distribution (µg/ml) 16,Enterococcus faecalis,0
same,MIC distribution (µg/ml) ≤0.015,Enterococcus faecalis,0
same,MIC50,Enterococcus faecalis; Enterococcus faecalis,2 µg/mL
same,MIC90,Enterococcus faecalis; Enterococcus faecalis,4 µg/mL
same,MIC50,Enterococcus faecalis; [3],2 µg/mL
same,MIC90,Enterococcus faecalis; [3],4 µg/mL
same,MIC Range,Enterococcus faecalis; [3],1 to 4 µg/mL
same,MIC distribution (µg/ml) 1,Enterococcus faecalis; [4],10
same,MIC distribution (µg/ml) 4,Enterococcus faecalis; [5],40
same,MIC Range,Staphylococcus aureus; [6],0.5 to 2 µg/mL
same,MIC50,Staphylococcus aureus; Staphylococcus aureus,1 µg/mL
same,MIC90,Staphylococcus aureus; Staphylococcus aureus,2 µg/mL
same,MIC Range,Streptococcus pneumoniae [1]; [7],0.19-1.5
same,MIC90,Streptococcus pneumoniae [1]; [8],1 µg/mL
same,MIC Range,Streptococcus pneumoniae [1]; [9],0.064-2
same,MIC90,Streptococcus pneumoniae [1]; Streptococcus pneumoniae,1 µg/mL
same,MIC50,"Streptococcus pneumoniae [1]; Streptococcus pneumoniae, Penicillin-intermediate S. pneumoniae (n = 24), E-test",0.75 µg/mL
same,MIC50,"Streptococcus pneumoniae [1]; Streptococcus pneumoniae, Penicillin-susceptible S. pneumoniae (n = 107), E-test",0.5 µg/mL
Teicoplanin,MIC50,Enterococcus faecalis; n = 81 isolates,0.5 µg/mL
same,MIC90,Enterococcus faecalis; n = 81 isolates,1 µg/mL
same,MIC Range,Enterococcus faecalis; n = 81 isolates,0.06 to 16 µg/mL
same,MIC distribution (µg/ml) 0.03,"Enterococcus faecalis; number of isolates at MIC 0.03 µg/ml, n = 81",0
same,MIC distribution (µg/ml) 0.06,"Enterococcus faecalis; number of isolates at MIC 0.06 µg/ml, n = 81",2
same,MIC distribution (µg/ml) 0.5,"Enterococcus faecalis; number of isolates at MIC 0.5 µg/ml, n = 81",35
same,MIC distribution (µg/ml) 1,Enterococcus faecalis; [4],27
same,MIC distribution (µg/ml) 2,"Enterococcus faecalis; number of isolates at MIC 2 µg/ml, n = 81",4
same,MIC distribution (µg/ml) 4,Enterococcus faecalis; [5],0
same,MIC distribution (µg/ml) 8,"Enterococcus faecalis; number of isolates at MIC 8 µg/ml, n = 81",0
same,MIC distribution (µg/ml) 16,"Enterococcus faecalis; number of isolates at MIC 16 µg/ml, n = 81",1
same,MIC distribution (µg/ml) 0.125,Enterococcus faecalis; [10],6
same,MIC distribution (µg/ml) 0.25,Enterococcus faecalis; [10],6
same,MIC distribution (µg/ml) ≤0.015,"Enterococcus faecalis; number of isolates at MIC ≤[…], n = 81",0
same,MIC distribution (µg/ml) ≥32,"Enterococcus faecalis; number of isolates at MIC ≥32 µg/ml, n = 81",0
same,MIC50,Staphylococcus aureus; [6],1 µg/mL
same,MIC90,Staphylococcus aureus; [6],2 µg/mL
same,MIC Range,Staphylococcus aureus; [6],0.5 to 8 µg/mL
same,MIC distribution (µg/ml) 0.06,"Staphylococcus aureus; number of isolates with MIC 0.06 µg/ml, Methicillin-susceptible Staphylococcus aureus (n = 85)",0
same,MIC distribution (µg/ml) 0.5,"Staphylococcus aureus; number of isolates with MIC 0.5 µg/ml, Methicillin-susceptible Staphylococcus aureus (n = 85)",26
same,MIC distribution (µg/ml) 1,"Staphylococcus aureus; number of isolates with MIC 1 µg/ml, Methicillin-susceptible Staphylococcus aureus (n = 85)",40
same,MIC distribution (µg/ml) 2,"Staphylococcus aureus; number of isolates with MIC 2 µg/ml, Methicillin-susceptible Staphylococcus aureus (n = 85)",17
same,MIC distribution (µg/ml) 4,"Staphylococcus aureus; number of isolates with MIC 4 µg/ml, Methicillin-susceptible Staphylococcus aureus (n = 85)",0
same,MIC distribution (µg/ml) 8,"Staphylococcus aureus; number of isolates with MIC 8 µg/ml, Methicillin-susceptible Staphylococcus aureus (n = 85)",2
same,MIC distribution (µg/ml) >64,"Staphylococcus aureus; number of isolates with MIC >[…] µg/ml, Methicillin-susceptible Staphylococcus aureus (n = 85)",0
same,MIC distribution (µg/ml) 16,Staphylococcus aureus; [11],0
same,MIC distribution (μg/ml) 32,Staphylococcus aureus; [11],0
same,MIC distribution (μg/ml) 64,Staphylococcus aureus; [11],0
same,MIC distribution (µg/ml) 0.125,Staphylococcus aureus; [12],0
same,MIC distribution (µg/ml) 0.25,Staphylococcus aureus; [12],0
same,MIC distribution (µg/ml) ≤0.03,"Staphylococcus aureus; number of isolates with MIC ≤0.03 µg/ml, Methicillin-susceptible Staphylococcus aureus (n = 85)",0
same,MIC Range,Streptococcus pneumoniae [1]; [7],0.023-0.125
same,MIC50,Streptococcus pneumoniae [1]; [8],0.064 µg/mL
same,MIC90,Streptococcus pneumoniae [1]; [8],0.125 µg/mL
same,MIC Range,Streptococcus pneumoniae [1]; [9],0.023-3
same,MIC50,Streptococcus pneumoniae [1]; [13],0.064 µg/mL
same,MIC90,Streptococcus pneumoniae [1]; [13],0.38 µg/mL
same,MIC50,Enterococcus faecium; n = 14 isolates,0.5 µg/mL
same,MIC90,Enterococcus faecium; n = 14 isolates,1 µg/mL
same,MIC Range,Enterococcus faecium; n = 14 isolates,0.25 to 4 µg/mL
same,MIC distribution (µg/ml) 0.03,"Enterococcus faecium; number of isolates at MIC 0.03 µg/ml, n = 14",0
same,MIC distribution (µg/ml) 0.06,"Enterococcus faecium; number of isolates at MIC 0.06 µg/ml, n = 14",0
same,MIC distribution (µg/ml) 0.5,"Enterococcus faecium; number of isolates at MIC 0.5 µg/ml, n = 14",4
same,MIC distribution (µg/ml) 1,"Enterococcus faecium; number of isolates at MIC 1 µg/ml, n = 14",6
same,MIC distribution (µg/ml) 2,"Enterococcus faecium; number of isolates at MIC 2 µg/ml, n = 14",0
same,MIC distribution (µg/ml) 4,"Enterococcus faecium; number of isolates at MIC 4 µg/ml, n = 14",1
same,MIC distribution (µg/ml) 8,"Enterococcus faecium; number of isolates at MIC 8 µg/ml, n = 14",0
same,MIC distribution (µg/ml) 16,"Enterococcus faecium; number of isolates at MIC 16 µg/ml, n = 14",0
same,MIC distribution (µg/ml) 0.125,Enterococcus faecium; [14],0
same,MIC distribution (µg/ml) 0.25,Enterococcus faecium; [14],3
same,MIC distribution (µg/ml) ≤0.015,"Enterococcus faecium; number of isolates at MIC ≤[…], n = 14",0
same,MIC distribution (µg/ml) ≥32,"Enterococcus faecium; number of isolates at MIC ≥32 µg/ml, n = 14",0
CC[C@H]1OC(=O)[C@H](C)[C@@H](O[C@H]2C[C@@](C)(OC)[C@@H](O)[C@H](C)O2)[C@H](C)[C@@H](O[C@@H]2O[C@H](C)C[C@H](N(C)C)[C@H]2O)[C@](C)(OC)C[C@@H](C)C(=O)[C@H](C)[C@@H](O)[C@]1(C)O [Clarithromycin],MIC50,Staphylococcus aureus; [15],0.25 µg/mL
same,MIC90,Staphylococcus aureus; [16],1 µg/mL
same,MIC50,Streptococcus pneumoniae [1]; [17],0.094 µg/mL
same,MIC90,Streptococcus pneumoniae [1]; [18],≥ 256 µg/mL
same,MIC50,Streptococcus pneumoniae [1]; [19],0.094 µg/mL
same,MIC90,Streptococcus pneumoniae [1]; [20],0.38 µg/mL
"CC[C@H]1OC(=O)[C@H](C)[C@@H](O[C@H]2C[C@@](C)(OC)[C@@H](O)[C@H](C)O2)[C@H](C)[C@@H](O[C@@H]2O[C@H](C)C[C@H](N(C)C)[C@H]2O)[C@](C)(O)C[C@@H](C)CN(C)[C@H](C)[C@@H](O)[C@]1(C)O [Azithromycin, azithromycin]",MIC50,Staphylococcus aureus; [15],1 µg/mL
same,MIC90,Staphylococcus aureus; [16],2 µg/mL
same,MIC50,Streptococcus pneumoniae [1]; [17],1 µg/mL
same,MIC90,Streptococcus pneumoniae [1]; [18],≥ 256 µg/mL
same,MIC50,Streptococcus pneumoniae [1]; [19],0.75 µg/mL
same,MIC90,Streptococcus pneumoniae [1]; [20],3 µg/mL
same,MIC90,Streptococcus pneumoniae [2]; Penicillin intermediate (n = 17),1 µg/mL
same,MIC90,Streptococcus pneumoniae [2]; Penicillin resistant (n = 4),0.06 µg/mL
same,MIC90,Streptococcus pneumoniae [2]; Penicillin susceptible (n = 69),0.06 µg/mL
